How the values were obtained:
[1] = target: T1, nuclear factor-kappa B (NF-kB)-inducing kinase (NIK) (Homo sapiens, UniProt Q99558); assay: NIK Enzyme Inhibition Assay (Transcreener ADP assay); type: biochemical; conditions: purified NIK 0.2-1 nM, 10 uM ATP, fluorescence polarization, Morrison's quadratic equation; read-out: inhibitory value (Ki) for NIK
T1 construct: made in house; host or cells: baculovirus-infected insect cells

[2] = test system: NF-kB signaling through NIK in human embryonic kidney 293 cells; assay: 293-NIK NF-kB-Luciferase reporter assay; type: cell-based; conditions: HEK293, 293 cells with tetracycline-inducible NIK, 1 ug/mL doxycycline, 24 hours, read-out: inhibitory value (IC50) for 293-NIK NF-kB-Luciferase activity
Outline: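 HEK293 cells stably carrying tetracycline-inducible NIK plus NF-kB (ELAM-1 element) firefly luciferase and constitutive TK-Renilla viability reporter. Compounds (0.2% DMSO) incubated 24 h with 1 ug/mL doxycycline; Dual Glo luminescence read, IC50 from firefly signal.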

[3] = test system: human embryonic kidney 293 cells; assay: 293-NIK TK Renilla Luciferase reporter (general measure of cell viability); type: cell-based; conditions: HEK293, 293 cells, constitutive Renilla luciferase, 24 hours, read-out: inhibitory value (IC50) for 293-NIK TK Renilla Luciferase activity
Description: (1) The first assay was used to profile whether a test compound can inhibit the NF-kB signally through NIK inhibition without affecting cell viability. In this assay, human embryonic kidney 293 cells was stably transfected with a tetracycline-inducible NIK DNA construct containing a cytomegalovirus promoter plus two reporter DNA constructs. One reporter encoded firefly luciferase under the control of three repeats of an NF-kB response element from the ELAM-1 gene and reflects the level of NIK activity in the cells, whereas the other reporter constitutively expressed Renilla luciferase under the control of the herpes simplex virus thymidine kinase promoter and served as a general measure of cell viability. Cells were incubated with different concentrations of compounds (0.2% DMSO final) in medium containing 1 ug/mL doxycycline and 10% tet-system approved fetal bovine serum (Clontech) for 24 hours, after which the reporters' signals were detected using the Dual Glo luciferase detection system (Promega) according to the vendor's protocol. The compounds listed in Table 1 have the corresponding inhibitory value (IC50 in micromolar) for 293-NIK NF-kB-Luciferase activity (values for compounds are presented in the same order as found in Table 1): na, 0.059, na, na, na, 0.105, 0.027, na, 20, 1.2, na, 1.8, 0.0231, 0.879, 0.0361, 0.582, na, 0.142, na, 0.403, 0.059, 0.0331, na, na, 0.0573, 1.5, na, na, 0.0722, na, na, 0.589, 12.7, 3.7, 14.9, na, 0.707, 1, 0.0311, 0.332, 0.309, 0.0142, 0.051, 2.8, 0.129, na, na, 1.5, na, na, na, 1.3, 0.062, 20, 0.31, 0.104, 0.091, 0.037, 0.085, 0.279, na, 0.305, 0.064, 0.332, 0.133, 0.168, 0.217, 0.553, na and na.
The compounds in listed in Table 1 have the corresponding inhibitory value (IC50 in micromolar) for 293-NIK TK Renilla Luciferase activity: (values for compounds are presented in the same order as found in Table 1): 6.4, 3.6, 20, na, 1.6, 9.3, 18.5, na, na, 2.6, na, na, na, na, na, na, na, na, na, na, na, na, na, na, na, na, na, na, na, na, na, na, na, na, na, na, na, na, na, na, na, na, na, na, na, na, na, >20, na, na, na, 20, >20, 17, 1.3, 15.6, 0.967, 2.7, 11.2, 5.1, na, 20, 20, 20, 20, 20, 17.6, 20, na and na.

[4] = test system: p52 (NF-kB2) nuclear translocation in HeLa cells; assay: NIK p52 Translocation Assay (non-classical NF-kB signaling); type: cell-based; conditions: Homo sapiens; HeLa cells, 100 ng/mL anti-lymphotoxin beta receptor antibody, 5 hours; read-out: inhibitory value (IC50) for NIK p52 Translocation Assay
Outline: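 HeLa cells in 10% FBS medium were exposed to compound (0.2% DMSO final) and stimulated with 100 ng/mL anti-lymphotoxin β receptor antibody for 5 h. Fixed cells were immunostained for p52 with DRAQ5 counterstain and imaged by high-content imaging. IC50 from nuclear/cytoplasmic p52 signal ratio vs concentration.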

[5] = test system: REL-A (p65) nuclear translocation in HeLa cells; assay: NIK RelA Translocation Assay (classical NF-kB signaling); type: cell-based; conditions: Homo sapiens; HeLa cells, compounds 4.5 hours, 10 ng/mL TNF-α 30 minutes; read-out: inhibitory value (IC50) for NIK RelA Translocation Assay
Outline: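 HeLa cells in 10% FBS medium were preincubated 4.5 h with compound (0.2% DMSO final), then stimulated with 10 ng/mL TNF-α for 30 min. After fixation, anti-REL-A (p65) immunostaining and DRAQ5 nuclear stain, high-content imaging gave the nuclear/cytoplasmic intensity ratio; IC50 from signal versus concentration.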

T1 sequence (Q99558 whole entry): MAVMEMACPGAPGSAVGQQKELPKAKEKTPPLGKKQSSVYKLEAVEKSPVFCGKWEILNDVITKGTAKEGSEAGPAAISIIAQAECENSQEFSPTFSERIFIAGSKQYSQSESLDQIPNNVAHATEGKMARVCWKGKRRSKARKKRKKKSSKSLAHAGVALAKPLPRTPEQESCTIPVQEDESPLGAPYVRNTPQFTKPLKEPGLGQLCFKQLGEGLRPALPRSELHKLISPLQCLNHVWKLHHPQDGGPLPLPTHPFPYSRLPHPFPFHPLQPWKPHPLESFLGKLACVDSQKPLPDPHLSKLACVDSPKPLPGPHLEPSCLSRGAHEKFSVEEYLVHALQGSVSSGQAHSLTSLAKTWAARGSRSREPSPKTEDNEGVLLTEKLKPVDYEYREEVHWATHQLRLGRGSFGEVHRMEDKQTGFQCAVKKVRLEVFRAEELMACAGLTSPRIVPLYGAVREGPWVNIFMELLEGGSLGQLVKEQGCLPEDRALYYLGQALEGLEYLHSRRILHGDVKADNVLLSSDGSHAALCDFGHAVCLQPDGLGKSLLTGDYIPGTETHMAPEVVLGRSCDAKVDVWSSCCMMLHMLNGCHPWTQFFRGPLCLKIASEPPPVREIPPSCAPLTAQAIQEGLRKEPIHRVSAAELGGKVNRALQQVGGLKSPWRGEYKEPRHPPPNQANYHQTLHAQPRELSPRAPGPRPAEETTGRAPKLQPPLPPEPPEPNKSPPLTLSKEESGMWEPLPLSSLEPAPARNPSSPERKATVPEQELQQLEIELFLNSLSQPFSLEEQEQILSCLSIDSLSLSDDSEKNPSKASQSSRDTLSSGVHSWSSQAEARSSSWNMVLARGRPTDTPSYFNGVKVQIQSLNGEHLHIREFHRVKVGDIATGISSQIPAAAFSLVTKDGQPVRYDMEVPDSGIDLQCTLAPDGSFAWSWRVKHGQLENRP

## Cc1cc(C(C)(O)C#Cc2ccc3nc(C4CC4)n(-c4ncnc(N)n4)c3c2)no1 (centres unmarked) [Example T1-60, 4-(1-(4-amino-1,3,5-triazin-2-yl)-2-cyclopropyl-1H-benzo [d]imidazol-6-yl)-2-(5-methyl-isoxazol-3-yl)but-3-yn-2-ol]
[1]
  Ki: 2.2 nM
[2]
  IC50: 279 nM
[3]
  IC50: 5100 nM
[4]
  IC50: 552 nM
[5]
  IC50: 1000 nM

Source: US8901313B2, “6,5-heterocyclic propargylic alcohol compounds and uses therefor” (Genentech, Inc., priority 2011, dated 2014)
